The target in experiment [1] is T1, human V1a receptor (Homo sapiens, UniProt P37288).
T1 construct: expressed in transfected cells; host or cells: CHO K1 (ATCC), also stably transfected with a modified aequorin
The experiment is described as follows: Cellular in vitro assay for vasopressin receptor activity, V1a receptor cell line (aequorin luminescence). In kind it is cell-based. The conditions noted are these: Table 1A; for IC50: CHO cell line transfected with human V1a receptor, [Arg8]-vasopressin at EC50, read-out: IC50 hV1a; for ratio IC50 hV2/hV1a: selectivity V1a over V2. As to the method: (§1) B-1. Cellular In Vitro Assay for Determining Vasopressin Receptor Activity
(§2) The identification of agonists and antagonists of the V1a and V2 vasopressin receptors from humans, rats and dogs as well as the quantification of the activity of the compounds of the invention is carried out using recombinant cell lines. These cell lines originally derive from a hamster's ovary epithelial cell (Chinese Hamster Ovary, CHO K1, ATCC: American Type Culture Collection, Manassas, Va. 20108, USA). The test cell lines constitutively express the human, rat or dog V1a or V2 receptors. In case of the Gαq-coupled V1a receptors, cells are also stably transfected with a modified form of the calcium-sensitive photoproteins aequorin (human and rat V1a) or obe-lin (dog V1a), which, after reconstitution with the cofactor coelenterazine, emit light when there are increases in free calcium concentrations [Rizzuto R, Simpson A W, Brini M, Pozzan T, Nature 358, 325-327 (1992); Illarionov B A, Bondar V S, Illarionova V A, Vysotski E S, Gene 153 (2), 273-274 (1995)]. The resulting vasopressin receptor cells react to stimulation of the recombinantly expressed V1a receptors by intracellular release of calcium ions, which can be quantified by the resulting photoprotein luminescence. The Gs-coupled V2 receptors are stably transfected into cell lines expressing the gene for firefly luciferase under control of a CRE-responsible promoter. Activation of V2 receptors induces the activation of the CRE-responsive promoter via cAMP increase, thereby inducing the expression of firefly luciferase. The light emitted by photoproteins of V1a cell lines as well as the light emitted by firefly luciferase of V2 cell lines corresponds to the activation or inhibition of the respective vasopressin receptor. The bioluminescence of the cell lines is detected using a suitable luminometer [Milligan G, Marshall F, Rees S, Trends in Pharmacological Sciences 17, 235-237 (1996)].
Vasopressin V1a Receptor Cell Lines:
On the day before the assay, the cells are plated out in culture medium (DMEM/F12, 2% FCS, 2 mM glutamine, 10 mM HEPES, 5 μg/ml coelenterazine) in 384-well microtiter plates and kept in a cell incubator (96% humidity, 5% v/v CO2, 37° C.). On the day of the assay, test compounds in various concentrations are placed for 10 minutes in the wells of the microtiter plate before the agonist [Arg^8]-vasopressin at EC50 concentration is added. The resulting light signal is measured immediately in a luminometer.

Experiment [2] deals with T2, human V2 receptor (Homo sapiens, UniProt P30518).
T2 construct: expressed in transfected cells; host or cells: CHO K1 (ATCC) expressing firefly luciferase under a CRE-responsive promoter
T2 sequence (P30518 whole entry): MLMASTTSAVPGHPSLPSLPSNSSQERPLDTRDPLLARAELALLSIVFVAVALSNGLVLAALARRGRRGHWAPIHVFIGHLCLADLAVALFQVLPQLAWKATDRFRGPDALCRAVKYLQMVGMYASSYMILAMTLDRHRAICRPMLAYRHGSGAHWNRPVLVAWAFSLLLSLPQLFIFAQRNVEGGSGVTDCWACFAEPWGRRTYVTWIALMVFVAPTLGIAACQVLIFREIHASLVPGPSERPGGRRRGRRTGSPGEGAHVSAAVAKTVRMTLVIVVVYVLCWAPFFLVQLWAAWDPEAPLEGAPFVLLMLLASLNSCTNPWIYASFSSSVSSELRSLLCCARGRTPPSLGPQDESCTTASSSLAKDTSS
The experiment is described as follows: Cellular in vitro assay for vasopressin receptor activity, V2 receptor cell line (CRE-luciferase). The experiment is classed as cell-based. The conditions noted are these: Table 1A; CHO cell line transfected with human V2 receptor; [Arg8]-vasopressin at EC50; read-out: IC50 hV2. As to the method:
as §1, §2
Vasopressin V2 Receptor Cell Lines:
On the day before the assay, the cells are plated out in culture medium (DMEM/F12, 2% FCS, 2 mM glutamine, 10 mM HEPES) in 384-well microtiter plates and kept in a cell incubator (96% humidity, 5% v/v CO2, 37° C.). On the day of the assay, test compounds in various concentrations and the agonist [Arg^8]-vasopressin at EC50 concentration are added together to the wells, and plates are incubated for 3 hours in a cell incubator. Upon addition of the cell lysis reagent Triton™ and the substrate luciferin, luminescence of firefly luciferase is measured in a luminometer.

SMILES strings stand for the structures.

Here are results for ten compounds from patent publication US10815205B2, “Amide-substituted phenyltriazole derivatives and uses thereof” (BAYER PHARMA AKTIENGESELLSCHAFT, priority 2016, dated 2020).

T1 sequence (P37288 whole entry): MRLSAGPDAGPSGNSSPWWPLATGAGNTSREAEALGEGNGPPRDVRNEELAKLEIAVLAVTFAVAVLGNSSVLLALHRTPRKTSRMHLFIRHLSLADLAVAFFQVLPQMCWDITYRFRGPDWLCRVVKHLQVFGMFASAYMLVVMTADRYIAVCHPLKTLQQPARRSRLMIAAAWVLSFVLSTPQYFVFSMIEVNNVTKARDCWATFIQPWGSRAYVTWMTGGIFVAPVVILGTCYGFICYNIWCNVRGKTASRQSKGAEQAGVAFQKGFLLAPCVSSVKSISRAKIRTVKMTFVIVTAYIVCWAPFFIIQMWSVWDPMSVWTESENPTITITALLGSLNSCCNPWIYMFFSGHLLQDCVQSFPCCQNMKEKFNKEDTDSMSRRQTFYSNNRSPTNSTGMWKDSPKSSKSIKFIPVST

Regarding `NC(=O)c1nc(Cn2nc(-c3ccc(Cl)cc3)n(CC(=O)C(F)(F)F)c2=O)nn1-c1ccccc1C(F)(F)F` [Example 8, 3-{[3-(4-chlorophenyl)-5-oxo-4-(3,3,3-trifluoro-2-oxopropyl)-4,5-dihydro-H-1,2,4-triazol-1-yl]methyl}-1-[2-(trifluoromethyl)phenyl]-1H-1,2,4-triazole-5-carboxamide (ketone form) or 3-{[3-(4-chlorophenyl)-5-oxo-4-(3,3,3-trifluoro-2,2-dihydroxypropyl)-4,5-dihydro-H-1,2,4-triazol-1-yl]methyl}-1-[2-(trifluoromethyl)phenyl]-1H-1,2,4-triazole-5-carboxamide (hydrate form)], in experiment [1], the IC50 (as a rule, the concentration at which inhibition is half-maximal) worked out at 1.85 nM and the “ratio IC50 hV2/hV1a” value is reported as 18.2. Also, the IC50 in experiment [2] was 33.7 nM.
For the compound `NC(=O)c1nc(Cn2nc(-c3ccc(Cl)cc3)n(C[C@@H](O)C(F)(F)F)c2=O)nn1-c1ccccc1C(F)(F)F` [Example 2, 3-({3-(4-Chlorophenyl)-5-oxo-4-[(2R)-3,3,3-trifluoro-2-hydroxypropyl]-4,5-dihydro-1H-1,2,4-triazol-1-yl}methyl)-1-[2-(trifluoromethyl)phenyl]-1H-1,2,4-triazole-5-carboxamide], in experiment [1], the IC50 was found to be 2.35 nM and the “ratio IC50 hV2/hV1a” value was 74.5. In experiment [2], the IC50 was 175 nM.
As to `NC(=O)c1nc(Cn2nc(-c3ccc(Cl)cc3)n(C[C@@H](O)C(F)(F)F)c2=O)nn1-c1ccccc1OC(F)(F)F` [Example 4, 3-({3-(4-Chlorophenyl)-5-oxo-4-[(2R)-3,3,3-trifluoro-2-hydroxypropyl]-4,5-dihydro-1H-1,2,4-triazol-1-yl}methyl)-1-[2-(trifluoromethoxy)phenyl]-1H-1,2,4-triazole-5-carboxamide], in experiment [1], the IC50 worked out at 9.65 nM and the “ratio IC50 hV2/hV1a” value was determined as 68.9. Also, the concentration for half-maximal inhibition (IC50) in experiment [2] was 665 nM.
For `NC(=O)c1nc(Cn2nc(-c3ccc(Cl)cc3)n(CC(=O)C(F)(F)F)c2=O)nn1-c1ccccc1OC(F)(F)F` [Example 9, 3-{[3-(4-chlorophenyl)-5-oxo-4-(3,3,3-trifluoro-2-oxopropyl)-4,5-dihydro-H-1,2,4-triazol-1-yl]methyl}-1-[2-(trifluoromethoxy)phenyl]-1H-1,2,4-triazole-5-carboxamide (ketone form) or 3-{[3-(4-chlorophenyl)-5-oxo-4-(3,3,3-trifluoro-2,2-dihydroxypropyl)-4,5-dihydro-1H-1,2,4-triazol-1-yl]methyl}-1-[2-(trifluoromethoxy)phenyl]-1H-1,2,4-triazole-5-carboxamide (hydrate form)], in experiment [1], the 50% inhibitory concentration (IC50) came out at 8.95 nM and the “ratio IC50 hV2/hV1a” value is recorded as 11.9. The IC50 in experiment [2] was found to be 106 nM.
Take `CS(=O)(=O)c1ccccc1-n1nc(Cn2nc(-c3ccc(Cl)cc3)n(C[C@H](O)C(F)(F)F)c2=O)nc1C(N)=O` [Example 7, 3-({3-(4-Chlorophenyl)-5-oxo-4-[(2S)-3,3,3-trifluoro-2-hydroxypropyl]-4,5-dihydro-1H-1,2,4-triazol-1-yl}methyl)-1-[2-(methylsulfonyl)phenyl]-1H-1,2,4-triazole-5-carboxamide]: in experiment [1], the IC50 came to 17.5 nM and the “ratio IC50 hV2/hV1a” value turned out to be 40.7. Besides, the concentration for half-maximal inhibition (IC50) in experiment [2] worked out at 712 nM.
For `NC(=O)c1nc(Cn2nc(-c3ccc(Cl)cc3)n(C[C@H](O)C(F)(F)F)c2=O)nn1-c1ccccc1C(F)(F)F` [Example 1, 3-({3-(4-Chlorophenyl)-5-oxo-4-[(2S)-3,3,3-trifluoro-2-hydroxypropyl]-4,5-dihydro-H-1,2,4-triazol-1-yl}methyl)-1-[2-(trifluoromethyl)phenyl]-1H-1,2,4-triazole-5-carboxamide], in experiment [1], the half-maximal inhibitory concentration (IC50) turned out to be 0.58 nM and the “ratio IC50 hV2/hV1a” value was determined as 41.4. In experiment [2], the IC50 amounted to 23.9 nM.
For the compound `NC(=O)c1nc(Cn2nc(-c3ccc(Cl)cc3)n(C[C@H](O)C(F)(F)F)c2=O)nn1-c1ccccc1OC(F)(F)F` [Example 3, 3-({3-(4-Chlorophenyl)-5-oxo-4-[(2S)-3,3,3-trifluoro-2-hydroxypropyl]-4,5-dihydro-1H-1,2,4-triazol-1-yl}methyl)-1-[2-(trifluoromethoxy)phenyl]-1H-1,2,4-triazole-5-carboxamide], the IC50 in experiment [1] is 1.25 nM; in experiment [2], 75.5 nM. Moreover, in experiment [1], the “ratio IC50 hV2/hV1a” value is 60.4.
Turning to `CCOc1ccccc1-n1nc(Cn2nc(-c3ccc(Cl)cc3)n(C[C@@H](O)C(F)(F)F)c2=O)nc1C(N)=O` [Example 10, 3-({3-(4-Chlorophenyl)-5-oxo-4-[(2R)-3,3,3-trifluoro-2-hydroxypropyl]-4,5-dihydro-H-1,2,4-triazol-1-yl}methyl)-1-(2-ethoxyphenyl)-1H-1,2,4-triazole-5-carboxamide], the IC50 stood at 8.2 nM in experiment [1] and 890 nM in experiment [2]. For the same compound, the “ratio IC50 hV2/hV1a” value in experiment [1] is 108.5.
Turning to `CCOc1ccccc1-n1nc(Cn2nc(-c3ccc(Cl)cc3)n(C[C@H](O)C(F)(F)F)c2=O)nc1C(N)=O` [Example 5, 3-({3-(4-Chlorophenyl)-5-oxo-4-[(2S)-3,3,3-trifluoro-2-hydroxypropyl]-4,5-dihydro-1H-1,2,4-triazol-1-yl}methyl)-1-(2-ethoxyphenyl)-1H-1,2,4-triazole-5-carboxamide], in experiment [1], the IC50 was 1.6 nM and the “ratio IC50 hV2/hV1a” value stood at 24.1. In addition, in experiment [2], the IC50 amounted to 38.5 nM.
For `CNC(=O)c1ccccc1-n1nc(Cn2nc(-c3ccc(Cl)cc3)n(C[C@H](O)C(F)(F)F)c2=O)nc1C(N)=O` [Example 6, 3-({3-(4-Chlorophenyl)-5-oxo-4-[(2S)-3,3,3-trifluoro-2-hydroxypropyl]-4,5-dihydro-1H-1,2,4-triazol-1-yl}methyl)-1-[2-(methylcarbamoyl)phenyl]-1H-1,2,4-triazole-5-carboxamide], the figures for the IC50 in experiment [1] and in experiment [2] were 12.9 nM and 975 nM, respectively. In addition, the “ratio IC50 hV2/hV1a” value in experiment [1] came to 75.6.
